# Test results from US9732386B2, “Cell aging as a unique biomarker of major depression” (THE REGENTS OF THE UNIVERSITY OF CALIFORNIA, priority 2010, dated 2017).
# Test system: subjects with Major Depressive Disorder
# Assay: Hamilton Depression Rating Scale (HDRS) ratings over 8 weeks of open-label sertraline treatment
# Format: in vivo, human
compound,measurement,setting,value
CN[C@H]1CC[C@@H](c2ccc(Cl)c(Cl)c2)c2ccccc21 [sertraline],"HDRS ratings, Mean±SD","Week 8 of sertraline treatment, 50 to max 200 mg per day, 16 depressed subjects, Baseline 18.50±3.65, paired t=5.67, p<0.000",10.19±4.62
same,range of changes in HDRS ratings,"over the 8-week course of sertraline treatment, individual subjects",27% worsening to 82% improvement
same,mean improvement in HDRS ratings,"over the 8-week course of sertraline treatment, relative to baseline",42.3±31%
